Measurements reported in US20220315598A1, “Oxygen-containing Heterocyclic Compound, Preparation Method Therefor and Use Thereof” (SHANGHAI YINGLI PHARMACEUTICAL CO., LTD, priority 2019, published 2022).
Read-outs that look alike come from different tables or passages of the source.

What was measured:
[1] = system: NCI-H358 cells; assay: Proliferation inhibition on NCI-H358 cell line by CTG method; format: cell-based, human; conditions: CellTiter Glo, 120 hours
Method: (§1) NCI-H358 was a human non-small cell lung cancer cell with KRAS G12C mutation; A549 was a human non-small cell lung cancer cell with KRAS G12V mutation: and A375 was a wild-type malignant melanoma cell. The inhibitory effects of compounds on different mutations were evaluated by testing the proliferation inhibitory activity of these compounds on the three cell lines.
(§2) 40 μL of cell suspension to be tested was added to each well (except for peripheral wells) of three 384-well plates (plate 1: NCI-H358 cell suspension: plate 2: A549 cell suspension: plate 3: A375 cell suspension). The plates were placed in a carbon dioxide incubator overnight. […] The plates were incubated in a carbon dioxide incubator for 120 hours. To the 384-well plates were added 25 μL of CellTiter Glo reagents, and the mixture was shaken in the dark for 10 minutes and incubated for 10 minutes. The plates were read on the EnVision plate reader. XLFit was used to draw inhibition rate curves of efficacy and IC50 values were calculated. […] “---” represents not determined.
Experiments for Testing Proliferation Inhibition of Compounds on NCI-H358 Cell Lines by CTG Method

[2] = system: MIA PaCa-2 cells; assay: Proliferation inhibition on MIA PaCa-2 cell line by CTG method; format: cell-based, human; conditions: Homo sapiens, MIA PaCa-2, Table 2, CellTiter Glo, 120 hours
Method: Experiments for Testing Proliferation Inhibition of Compounds on MIA PaCa-2 Cell Lines by CTG Method
40 μL of MIA PaCa-2 cell suspension was added to each well (except for peripheral wells) of 384-well plates. The plates were placed in a carbon dioxide incubator overnight. […] The plates were incubated in a carbon dioxide incubator for 120 hours. To the 384-well plates were added 25 μL of CellTiter Glo reagents, and the mixture was shaken in the dark for 10 minutes and incubated for 10 minutes. The plates were read on the EnVision plate reader. XLFit was used to draw inhibition rate curves of efficacy and IC50 values were calculated. […] “---” represents not determined.
MIA PaCa-2 was a human pancreatic cancer cell with KRAS G12C mutation. The activity of compounds can be evaluated by detecting the proliferation inhibitory activity of these compounds on such cell line.

[3] = system: A549 cells; assay: Proliferation inhibition on A549 cell line by CTG method; format: cell-based, human
Method: as §1, §2

[4] = system: A375 cells; assay: Proliferation inhibition on A375 cell line by CTG method; format: cell-based; conditions: Table 1, CellTiter Glo, 120 hours, class symbol
Method: as §1, §2

[5] = Homo sapiens, NCI-H358, 120 h, Table 1, number, read-out: IC50 (μM): (H358)
[6] = Homo sapiens, NCI-H358, 120 h, Table 1, class symbol, read-out: IC50 (μM): (H358)
[7] = Homo sapiens, A549, 120 h, Table 1, CellTiter Glo, class symbol
[8] = Table 1, class symbol, read-out: IC50 (μM): (H358)
[9] = Table 1, CellTiter Glo, 120 hours, class symbol
[10] = Homo sapiens, NCI-H358, 120 h, Table 2, class symbol, read-out: IC50 (nM) H358

| Compound | IC50 [1, 6] [µM] | IC50 [3, 7] [µM] | IC50 ([4]; Homo sapiens, A-375) [µM] | further results |
| --- | --- | --- | --- | --- |
| C=CC(=O)N1CCN(c2nc(OC[C@@H]3CCCN3C)nc3c2CCN(c2ccccc2C(F)(F)F)C3)C[C@@H]1CC#N [Comparative compound 1′, reference compound] |  |  |  | IC50 [1, 5]: 0.0073 µM; IC50 ([1]; Homo sapiens, NCI-H358, 120 h, Table 2, number, read-out: IC50 (nM) H358): 0.0073 µM; IC50 ([2]; number): 3.9 nM |
| C=CC(=O)N1CCN(c2nc(OC[C@@H]3CCCN3C)nc3c2CC[C@H](c2ccccc2C(F)(F)F)C3)C[C@@H]1CC#N [Comparative compound 3′, reference compound] |  |  |  | IC50 ([2]; number): 8.3 nM |
| C=CC(=O)N1CCN(c2nc(OC[C@@H]3CCCN3C)nc3c2COCC3)C[C@@H]1CC#N [Compound 1] | > 1 | > 1 |  | IC50 [1, 5]: > 10 µM; IC50 ([3]; Homo sapiens, A549, 120 h, Table 1, CellTiter Glo, number): > 10 µM |
| C=CC(=O)N1CCN(c2nc(OC[C@@H]3CCCN3C)nc3c2COC(c2ccccc2C(F)(F)F)C3)C[C@@H]1CC#N (some centres unmarked) [Compound 2-1] |  |  |  | IC50 [1, 8]: < 1 µM; IC50 [3, 9]: > 1 µM; IC50 [4]: > 1 µM |
| C=CC(=O)N1CCN(c2nc(OC[C@@H]3CCCN3C)nc3c2COC(c2cccc4ccccc24)C3)C[C@@H]1CC#N (some centres unmarked) [Compound 3-1] |  |  | > 1 |  |
| C=CC(=O)N1CCN(c2nc(OC[C@@H]3CCCN3C)nc3c2COC(c2cccc4ccccc24)C3)C[C@@H]1CC#N (some centres unmarked) [Compound 3-2] |  |  |  | IC50 [4]: > 1 µM |
| C=CC(=O)N1CCN(c2nc(OC[C@@H]3CCCN3C)nc3c2COC(c2cccc4ccccc24)C3)C[C@@H]1CC#N (some centres unmarked) [Compound 3] | < 1 | > 1 |  |  |
| C=CC(=O)N1CCN(c2nc(OC[C@@H]3CCCN3C)nc3c2COC(c2cccc4cccc(C)c24)C3)C[C@@H]1CC#N (some centres unmarked) [Compound 4-1] |  |  | > 1 | IC50 [1, 8]: < 1 µM |
| C=CC(=O)N1CCN(c2nc(OC[C@@H]3CCCN3C)nc3c2COC(c2cccc4cccc(C)c24)C3)C[C@@H]1CC#N (some centres unmarked) [Compound 4-2] |  |  |  | IC50 [1, 8]: < 1 µM; IC50 [3, 9]: > 1 µM; IC50 [4]: > 1 µM |
| C=CC(=O)N1CCN(c2nc(OC[C@@H]3CCCN3C)nc3c2COC(c2cccc4cccc(C)c24)C3)C[C@@H]1CC#N (some centres unmarked) [Compound 4] | < 1 | > 1 |  |  |
| C=CC(=O)N1CCN(c2nc(OCCN(C)C)nc3c2COC(c2cccc4cccc(C)c24)C3)C[C@@H]1CC#N (some centres unmarked) [Compound 5] | < 1 | > 1 |  |  |
| C=CC(=O)N1CCN(c2nc(OCCN(CC)CC)nc3c2COC(c2cccc4cccc(C)c24)C3)C[C@@H]1CC#N (some centres unmarked) [Compound 6-2] | < 1 | > 1 |  |  |
| C=CC(=O)N1CCN(c2nc(OCCCN(C)C)nc3c2COC(c2cccc4cccc(C)c24)C3)C[C@@H]1CC#N (some centres unmarked) [Compound 7] | < 1 | > 1 |  |  |
| C=CC(=O)N1CCN(c2nc(OC[C@@H]3CCCN3C)nc3c2COC(c2cccc4cccc(C)c24)C3)CC1 (some centres unmarked) [Compound 8] | < 1 | > 1 |  |  |
| C=CC(=O)N1CCN(c2nc(N(C)CCN(C)C)nc3c2COC(c2cccc4cccc(C)c24)C3)C[C@@H]1CC#N (some centres unmarked) [Compound 9] | < 1 | > 1 |  |  |
| C/C=C/C(=O)N1CCN(c2nc(OC[C@@H]3CCCN3C)nc3c2COC(c2cccc4cccc(C)c24)C3)C[C@@H]1CC#N (some centres unmarked) [Compound 10] | < 1 | > 1 | > 1 |  |
| C=CC(=O)N1CCN(c2nc(OC[C@@H]3CCCN3C)nc3c2COC(c2cccc4cccc(C)c24)C3)[C@@H](C)C1 (some centres unmarked) [Compound 11-2] | < 1 | > 1 | > 1 |  |
| C=C(F)C(=O)N1CCN(c2nc(OC[C@@H]3CCCN3C)nc3c2COC(c2cccc4cccc(Cl)c24)C3)C[C@@H]1CC#N (some centres unmarked) [Compound 12-2] | < 1 | > 1 | > 1 |  |

| Compound | IC50 [1, 6] [µM] | IC50 [3, 7] [µM] | IC50 ([4]; Homo sapiens, A-375) [µM] | further results |
| --- | --- | --- | --- | --- |
| C=C(F)C(=O)N1CCN(c2nc(OC[C@@H]3CCCN3C)nc3c2COC(c2cccc4cccc(C)c24)C3)C[C@@H]1CC#N (some centres unmarked) [Compound 13] | < 1 | > 1 | > 1 |  |
| C=CC(=O)N1CCN(c2nc(OC(C)CN(C)C)nc3c2COC(c2cccc4cccc(C)c24)C3)C[C@@H]1CC#N (some centres unmarked) [Compound 14] | < 1 | > 1 | > 1 |  |
| C=CC(=O)N1CCN(c2nc(OC[C@@H]3CC(F)(F)CN3C)nc3c2COC(c2cccc4cccc(C)c24)C3)C[C@@H]1CC#N (some centres unmarked) [Compound 15] | < 1 | > 1 | > 1 |  |
| C=CC(=O)N1CCN(c2nc(OC[C@H]3CCCN3C)nc3c2COC(c2cccc4cccc(C)c24)C3)C[C@@H]1CC#N (some centres unmarked) [Compound 16] | < 1 | > 1 | > 1 |  |
| Cc1cccc2cccc(C3Cc4nc(OC[C@@H]5CCCN5C)nc(N5CCN(C(=O)/C=C/CN(C)C)[C@@H](CC#N)C5)c4CO3)c12 (some centres unmarked) [Compound 17] | < 1 | > 1 | > 1 |  |
| C=C(F)C(=O)N1CCN(c2nc(OC[C@H]3CCCN3C)nc3c2COC(c2ccccc2C(F)(F)F)C3)C[C@@H]1CC#N (some centres unmarked) [Compound 19-2] | < 1 | > 1 | > 1 |  |
| CC#CC(=O)N1CCN(c2nc(OC[C@@H]3CCCN3C)nc3c2COC(c2cccc4cccc(C)c24)C3)C[C@@H]1CC#N (some centres unmarked) [Compound 24] | < 1 | > 1 | > 1 |  |
| C=CC(=O)N1CCN(c2nc(OC[C@@H]3CCCN3C)nc3c2COC(c2cccc4cccc(Cl)c24)C3)C[C@@H]1CC#N (some centres unmarked) [Compound 25] | < 1 | > 1 | > 1 |  |
| C=C(F)C(=O)N1CCN(c2nc(OC[C@@H]3CCCN3C)nc3c2COC(c2ccccc2Cl)C3)C[C@@H]1CC#N (some centres unmarked) [Compound 30] | < 1 | > 1 | > 1 |  |
| Cc1cccc2cccc(C3Cc4nc(OC[C@@H]5CCCN5C)nc(N5CCN(C(=O)/C=C/CN6CCOCC6)[C@@H](CC#N)C5)c4CO3)c12 (some centres unmarked) [Compound 31] | < 1 | > 1 | > 1 |  |
| C=C(F)C(=O)N1CCN(c2nc(OC[C@H]3CCCN3C)nc3c2COC(c2cccc4cccc(Cl)c24)C3)C[C@@H]1CC#N (some centres unmarked) [Compound 32-2] | < 1 | > 1 | > 1 |  |
| CN(C)C/C=C/C(=O)N1CCN(c2nc(OC[C@@H]3CCCN3C)nc3c2CO[C@H](c2cccc4cccc(Cl)c24)C3)C[C@@H]1CC#N [Compound 36] |  |  |  | IC50 [1, 10]: < 1 µM |
| C=CC(=O)N1CCN(c2nc(OC[C@@H]3CCCN3C)nc3c2COC(c2cncc4ccccc24)C3)C[C@@H]1CC#N (some centres unmarked) [Compound 40] |  |  |  | IC50 ([2]; class symbol): < 1000 nM |
| CN1CCC[C@H]1COc1nc2c(c(N3CCN(C#N)[C@@H](CC#N)C3)n1)CO[C@H](c1cccc3cccc(Cl)c13)C2 [Compound 41] |  |  |  | IC50 [1, 10]: < 1 µM |
| CC(=O)/C=C/C(=O)N1CCN(c2nc(OC[C@@H]3CCCN3C)nc3c2CO[C@H](c2cccc4cccc(Cl)c24)C3)C[C@@H]1CC#N [Compound 44] |  |  |  | IC50 [1, 10]: < 1 µM |
| C=CC(=O)N1CCN(c2nc(NCCN(C)C)nc3c2CO[C@H](c2cccc4cccc(Cl)c24)C3)C[C@@H]1CC#N [Compound 45] |  |  |  | IC50 [1, 10]: < 1 µM |
| C=CC(=O)N1CCN(c2nc(SCCN(C)C)nc3c2CO[C@H](c2cccc4cccc(Cl)c24)C3)C[C@@H]1CC#N [Compound 46] |  |  |  | IC50 [1, 10]: < 1 µM |
